Test results from patent US5152784A, “Prosthetic devices coated with a polypeptide with type IV collagen activity” (Regents of the University of Minnesota, priority 1991, dated 1992).
“Also recorded” adds a separate entry of the source.

Tests used:
peptide Hep-III = target: T1, peptide Hep-III (Homo sapiens, UniProt P02462); experiment: Competition of 3H-heparin binding to coated peptide Hep-III by glycosaminoglycans; conditions: Hep-III coated from 500 μg/ml; 3H-heparin 50,000 cpm per well; unlabeled glycosaminoglycan in increasing amounts
T1 construct: residues 531-543 from the amino-terminus of the α1 chain of type IV collagen; The single letter amino acid code for this polypeptide is GEFYFDLRLKGDK; made in house; host or cells: chemical solid-phase (Merrifield) peptide synthesis
Method: To check the specificity of the interaction between heparin and peptide Hep-III or whether the heparin structure was also critical to this interaction, heparin along with other sulfated glucosaminoglycans, dextran and chondroitin sulfate were used in competition experiments. A standard amount of […] of a solution containing 500 μg/ml of peptide Hep-III was coated on 96-well plates as described above. Wells were treated for two hours with 2 mg/ml BSA in wash buffer. Then, a final volume of 50 μl was added to each well, containing a standard amount of ^3 H-heparin (50,000 cpm per well) and various amounts of non-radioactive heparin, dextran or chondroitin sulfate. After incubating for two hours at 37° C., the wells were washed and radioactivity was counted as described above in Example 1.

melanoma cell line (M4) = experiment: Inhibition of melanoma cell adhesion to type IV collagen-coated wells by peptide in solution; format: cell-based, murine; conditions: cells coincubated 20 min with peptide in solution, then 20 min on collagen-coated wells
Method: Cells were grown, labeled and harvested as described in Example 4, but after detachment and washing they were coincubated for 20 min. in the presence of various concentrations of peptide Hep-III in solution. They were then applied for another 20 min. on type IV collagen-coated plastic wells. At the end of the incubation the same treatment described in Example 4 was used.

[1] = Heparin binding to plastic plates coated with peptide
Method: The ability of the synthesized peptide Hep-III to interact with heparin when coated on 96-well plastic plates was evaluated. Stock solutions of peptide Hep-III at a concentration of 500 μg/ml were prepared in phosphate-buffered saline containing 0.02% sodium azide. Fifty μl from each concentration was coated on the 96-well plates and left to dry overnight at 28° C. Then, wells were treated for two hours with […] of 2 mg/ml BSA and 6 mM phosphate, 10 mM NaCl, 68 μM CaCl2, pH 6.8 (wash buffer) in order to minimize non-specific binding. Next 50 μl of ^3 H-heparin (10 μg/ml) was added at increasing concentrations (0 to 1400 ng/well) for two hours at 37° C. The wells were then washed three times with wash buffer containing 0.05% Triton X-100 and finally they were incubated for thirty minutes at 60° C. with 200 μl of 0.5N NaOH and 1% SDS. The amount of ^3 H-heparin bound at each concentration was quantitated with a Beckman LS-3801 liquid scintillation counter. […] Comparison with data obtained using exactly the same methodology indicate that peptide Hep-III is at least 10 times stronger than peptide Hep-I (TS-2 in U.S. Pat. No. 4,876,332) (see FIG. 5B) and about 100 times stronger than type IV collagen, when used in the same coating concentrations.

[2] = system: Bovine aortic endothelial cells; experiment: Direct adhesion of endothelial cells to peptide-coated plastic; format: cell-based; conditions: coated at increasing concentrations; 120 min, 37° C.
Method: Bovine aortic endothelial cells were isolated according to the following protocol. Aortas were obtained from a local slaughterhouse, washed in cold phosphate buffered saline (PBS) (136 mM NaCl, 2.6 mM KCl, 15.2 mM Na2 HPO4, pH 7.2) and processed within 2 hours. Crude collagenase (CLS III, 125-145 units per mg dry weight, Cooper Biomedical) was used at 2 mg/ml in Dulbecco's modified Eagle's medium (DMEM) (GIBCO). The vessel was clamped at the distal end, filled with the collagenase-PBS solution and digestion was carried out for 10 minutes. The lumenal contents were harvested, followed by the addition of fresh collagenase for two additional 10-minute periods. The enzyme-cell suspensions were added to an equal volume of DMEM containing 10% fetal bovine serum (FBS) to inhibit the enzyme and spun in a centrifuge at 400×g for 10 minutes. The resulting cell pellet was resuspended in DMEM containing 10% FBS, 100 units/ml of penicillin G, 100 μg/ml of streptomycin and 100 μg/ml of crude fibroblast growth factor. Cells are in 75 cm^2 flasks in a humidified 5% CO2 atmosphere at 37° C. Cultures were fed twice a week with the same medium and cells were used in assays when approximately 75% confluent. The cells were labeled for 24 hours prior to use with a mixture of ^35 S-labeled amino acids (3 mCi). […]

endothelial cells [3] = experiment: Inhibition of 125I-Hep-III binding to endothelial cell surface by excess unlabeled peptide; design: species or system bovine; conditions: unlabeled peptide up to 500-fold excess; 15 min, 4° C.
Method: (§1) Melanoma and endothelial cells were grown in culture as discussed in Examples 4, 5, 6, and 7A (supra). On the day of the experiment, the cells were harvested by trypsinization (supra) and were co-incubated with 50 μl of peptide Hep-III. 50 μl a constant amount of ^125 I-labeled peptide Hep-III was mixed with increasing concentrations of unlabeled peptide Hep-III or a control peptide (maximal excess of unlabeled peptide: 500-fold over radiolabeled Hep-III). 50 μl of each concentration of unlabeled peptide which was mixed with radiolabeled Hep-III were then added to cells in suspension (5,000 cells per concentration of peptide). The cells were incubated with the mixture of unlabeled-radiolabeled peptide for 15 min. at 4° C. and they were then pelleted. The cells were subsequently washed and bound radioactivity was quantitated as described in Example 7A. […] These experiments provide confirmation that a specific interaction occurs between melanoma and endothelial-cell surfaces and peptide Hep-III.

type IV collagen = target: T2, type IV collagen (Homo sapiens, UniProt P02462+P08572); experiment: Inhibition of 3H-heparin binding to type IV collagen coated on plastic by peptide in solution; conditions: peptide in solution 0.5 mg/ml to 5 μg/ml; 3H-heparin 500 ng per well; type IV collagen coated at 60 μg/ml
T2 construct: intact, native type IV collagen coated on plastic
T2 sequence (P02462 173-1669): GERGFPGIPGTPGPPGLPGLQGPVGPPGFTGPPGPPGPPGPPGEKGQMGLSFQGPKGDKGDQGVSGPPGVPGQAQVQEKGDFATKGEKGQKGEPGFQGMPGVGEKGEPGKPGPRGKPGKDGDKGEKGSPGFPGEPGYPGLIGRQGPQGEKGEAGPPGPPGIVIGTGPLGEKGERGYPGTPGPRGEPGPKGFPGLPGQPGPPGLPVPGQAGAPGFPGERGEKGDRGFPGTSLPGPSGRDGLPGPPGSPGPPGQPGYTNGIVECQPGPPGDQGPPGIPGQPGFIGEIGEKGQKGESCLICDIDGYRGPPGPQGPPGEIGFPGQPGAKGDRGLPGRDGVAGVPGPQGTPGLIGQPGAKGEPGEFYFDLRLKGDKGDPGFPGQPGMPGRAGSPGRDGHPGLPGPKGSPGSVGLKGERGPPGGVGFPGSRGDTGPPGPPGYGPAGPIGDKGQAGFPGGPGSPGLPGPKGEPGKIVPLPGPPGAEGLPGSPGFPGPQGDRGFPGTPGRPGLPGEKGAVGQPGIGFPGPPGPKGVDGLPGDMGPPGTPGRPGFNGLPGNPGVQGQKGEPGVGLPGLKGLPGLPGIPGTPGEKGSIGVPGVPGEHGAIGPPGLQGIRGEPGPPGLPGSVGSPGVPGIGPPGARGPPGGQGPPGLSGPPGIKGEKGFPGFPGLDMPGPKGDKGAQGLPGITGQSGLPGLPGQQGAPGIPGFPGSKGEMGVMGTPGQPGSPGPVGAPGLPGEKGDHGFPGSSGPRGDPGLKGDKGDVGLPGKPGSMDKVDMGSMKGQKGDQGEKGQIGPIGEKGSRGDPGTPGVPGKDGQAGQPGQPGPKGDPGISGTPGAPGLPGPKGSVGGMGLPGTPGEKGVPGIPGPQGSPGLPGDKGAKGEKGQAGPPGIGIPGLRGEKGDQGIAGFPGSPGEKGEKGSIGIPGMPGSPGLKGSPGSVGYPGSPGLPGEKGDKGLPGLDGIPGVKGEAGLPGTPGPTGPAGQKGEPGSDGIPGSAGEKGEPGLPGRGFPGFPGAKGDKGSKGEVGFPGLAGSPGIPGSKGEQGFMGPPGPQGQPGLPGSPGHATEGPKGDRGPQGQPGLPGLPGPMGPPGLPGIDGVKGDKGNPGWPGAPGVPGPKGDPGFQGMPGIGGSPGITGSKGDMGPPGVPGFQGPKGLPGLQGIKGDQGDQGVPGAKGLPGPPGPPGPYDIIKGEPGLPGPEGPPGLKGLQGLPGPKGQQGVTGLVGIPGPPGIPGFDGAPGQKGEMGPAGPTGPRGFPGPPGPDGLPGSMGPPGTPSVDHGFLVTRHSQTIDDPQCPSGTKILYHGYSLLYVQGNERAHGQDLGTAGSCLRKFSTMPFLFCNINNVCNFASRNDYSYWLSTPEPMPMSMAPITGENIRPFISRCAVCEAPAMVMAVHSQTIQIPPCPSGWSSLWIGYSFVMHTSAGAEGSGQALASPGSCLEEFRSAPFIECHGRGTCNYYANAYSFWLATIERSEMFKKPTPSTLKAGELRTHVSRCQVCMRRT
T2 sequence (P08572 184-1712): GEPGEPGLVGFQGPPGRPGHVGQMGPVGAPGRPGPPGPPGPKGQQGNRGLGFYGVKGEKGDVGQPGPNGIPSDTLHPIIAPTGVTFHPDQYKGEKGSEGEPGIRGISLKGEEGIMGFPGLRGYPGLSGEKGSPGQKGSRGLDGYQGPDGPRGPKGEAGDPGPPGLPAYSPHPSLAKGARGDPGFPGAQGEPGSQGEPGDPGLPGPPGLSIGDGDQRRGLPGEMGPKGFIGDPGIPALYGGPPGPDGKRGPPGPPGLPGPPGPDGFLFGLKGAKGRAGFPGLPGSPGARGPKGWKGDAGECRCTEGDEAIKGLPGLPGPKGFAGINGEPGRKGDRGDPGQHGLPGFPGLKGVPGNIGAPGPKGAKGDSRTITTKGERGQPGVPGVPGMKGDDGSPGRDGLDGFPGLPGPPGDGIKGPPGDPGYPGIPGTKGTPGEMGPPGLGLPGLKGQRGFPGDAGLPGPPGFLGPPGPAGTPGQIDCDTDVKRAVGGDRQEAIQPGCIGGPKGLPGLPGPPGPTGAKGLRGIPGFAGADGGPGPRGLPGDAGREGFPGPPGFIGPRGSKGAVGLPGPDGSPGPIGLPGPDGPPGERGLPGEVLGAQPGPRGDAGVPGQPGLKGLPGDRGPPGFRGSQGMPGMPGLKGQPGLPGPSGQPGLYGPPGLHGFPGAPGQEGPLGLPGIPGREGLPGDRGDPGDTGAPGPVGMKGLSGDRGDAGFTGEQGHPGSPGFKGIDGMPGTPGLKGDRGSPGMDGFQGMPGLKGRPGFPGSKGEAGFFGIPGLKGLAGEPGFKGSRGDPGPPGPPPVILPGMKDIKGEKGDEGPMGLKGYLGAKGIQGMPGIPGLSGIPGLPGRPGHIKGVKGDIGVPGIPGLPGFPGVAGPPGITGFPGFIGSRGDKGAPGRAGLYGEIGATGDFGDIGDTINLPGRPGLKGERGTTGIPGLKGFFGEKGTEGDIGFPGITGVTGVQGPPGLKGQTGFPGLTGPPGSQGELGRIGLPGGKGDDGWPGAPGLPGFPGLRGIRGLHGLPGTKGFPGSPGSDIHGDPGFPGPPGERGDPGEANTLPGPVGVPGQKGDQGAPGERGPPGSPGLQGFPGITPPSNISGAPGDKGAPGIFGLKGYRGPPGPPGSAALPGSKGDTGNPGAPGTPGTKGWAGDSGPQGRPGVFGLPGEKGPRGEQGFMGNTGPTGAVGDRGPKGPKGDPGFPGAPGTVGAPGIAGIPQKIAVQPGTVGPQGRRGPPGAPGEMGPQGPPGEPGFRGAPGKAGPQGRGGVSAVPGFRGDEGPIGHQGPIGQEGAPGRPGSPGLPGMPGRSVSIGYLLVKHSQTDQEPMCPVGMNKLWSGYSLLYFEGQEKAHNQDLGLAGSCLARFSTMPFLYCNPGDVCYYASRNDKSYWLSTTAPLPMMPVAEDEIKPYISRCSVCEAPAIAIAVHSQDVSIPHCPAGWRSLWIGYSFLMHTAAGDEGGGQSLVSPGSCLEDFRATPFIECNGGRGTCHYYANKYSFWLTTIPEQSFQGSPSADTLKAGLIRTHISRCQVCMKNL
Method: Peptide Hep-III in solution (and not absorbed to plastic), was screened for the ability to inhibit the binding of heparin to intact, native type IV collagen coated on plastic. This experimental approach avoids problems due to differential coating of peptides in heparin binding assays. Type IV collagen at 60 μg/ml in PBS was coated on 96-well plates, using 50 μl per well and dried overnight at 28° C. The wells were then treated for two hours with 2 mg/ml BSA in wash buffer (described above in Example 1). Peptide Hep-III at various dilutions ranging from 0.5 mg/ml to 5 μg/ml in PBS and CHAPS (cholamido-propyl-dimethyl-ammoniopropane-sulfonate) (a detergent used to avoid non-specific sticking) was co-incubated with a standard amount of ^3 H-heparin (500 ng per well […]) for two hours at 37° C. and the mixture was then transferred to the collagen coated plate (50 μl) and allowed to incubate for another two hours at 37° C. The wells were then washed and radioactivity was counted as described above.

melanoma cells [4] = experiment: Inhibition of 125I-Hep-III binding to melanoma cell surface by excess unlabeled peptide; design: species or system murine; conditions: unlabeled peptide up to 500-fold excess; 15 min, 4° C.
Method: as §1

endothelial cells [5] = experiment: Direct binding of 125I-labeled peptide Hep-III to endothelial cell surface; design: species or system bovine; conditions: about 5,000 cells; 15 min, 4° C.; increasing peptide concentrations
Method: (§2) Endothelial and melanoma cells were grown in culture as described in Examples 4, 5, and 6 (supra). Cells used for this type of experiment were not labeled with radioactivity. Unlabeled cells were harvested by trypsinization (supra) on the day of the experiment. About 5,000 cells were mixed with 50 μl of a given concentration of peptide Hep-III in solution. Increasing concentrations of peptide Hep-III were used. The cells were incubated with the iodinated peptide for 15 min. at 4° C. and they were then pelleted by centrifugation. The cells were then resuspended and washed 3 times with DMEM containing 2 mg/ml BSA and 50 mM Hepes. Following the washes, the cells were pelleted for a final time in plastic tubes, the supernatant was decanted and the radioactivity of the pellet was quantitated in a Beckman scintillation counter. The binding of peptide Hep-III to endothelial cells is saturable (FIG. 10B)--an indication of specificity. […] These experiments indicate that peptide Hep-III specificity interacts with the surfaces of both endothelial cells and melanoma.

K-1735-M4 melanoma cells = experiment: Adhesion of melanoma cells to peptide-coated wells; format: cell-based, murine; conditions: 120 minutes, 37° C.
Source text: Highly metastatic murmine melanoma cells, K-1735-M4 were originally provided by Dr. I. J. Fidler of Anderson Hospital, University of Texas Health Sciences Center, Houston, Tex. When the cells were received, a large number of early passage cells were propagated and frozen in liquid nitrogen. The tumor cells are usually cultured in vitro for no longer than six weeks. Following this period, the cells are discarded and new cells withdrawn from storage for use in further in vitro or in vivo experiments. This precaution is taken to minimize phenotypic drift that can occur as a result of continuous in vitro passage. The cells were cultured in Dulbecco's Modified Eagle's Medium containing 5% heat inactivated fetal calf serum. The cultures were grown in 37° C. incubators with a humidified atmosphere containing 5% CO2. Cells were subcultured twice weekly by releasing cells gently from the flask, using 0.05% trypsin and 1 mM EDTA.
Cultures of cells which were 60-80% confluent were metabolically labeled for 24 hours with the addition of 3 mCi/ml of ^3 H-td (tritiated thymidine). On the day of the assay, the cells were harvested by trypsinization, the trypsin was inhibited by the addition of serum, and the cells were washed free of this mixture and resuspended in DMEM buffered with HEPES at pH 7.2. […] The solubilized cells were then quantitated using a liquid scintillation counter. […]

melanoma cells [6] = experiment: Direct binding of 125I-labeled peptide Hep-III to melanoma cell surface; design: species or system murine; conditions: about 5,000 cells; 15 min, 4° C.; increasing peptide concentrations
Method: as §2

[7] = same methodology, same coating concentrations

chondroitin sulfate
competition for the binding of tritiated heparin to peptide Hep-III (peptide Hep-III): cannot mimic this effect except at extremely high concentrations

dextran
competition for the binding of tritiated heparin to peptide Hep-III (peptide Hep-III): substantially more dextran is needed to achieve similar levels of competition

gly-glu-phe-tyr-phe-asp-leu-arg-leu-lys-gly-asp-lys (GEFYFDLRLKGDK) [Hep-III, …; type IV collagen residues 531-543 from the amino-terminus of the α1 chain]
decrease of melanoma cell binding to type IV collagen-coated substrata (melanoma cell line (M4)): dramatically decrease the binding of melanoma cells
binding of 3H-heparin to coated peptide ([1]; peptide coated on 96-well plastic plates, 3H-heparin 0 to 1400 ng/well, 2 h, 37° C.): extremely potent promoter of heparin-binding to synthetic substrates; also recorded: strong binding to heparin; also recorded: very potent binder of heparin
heparin binding strength relative to peptide Hep-I (TS-2) [1, 7]: at least 10 times
heparin binding strength relative to type IV collagen [1, 7]: about 100 times
endothelial cell adhesion to coated substrate (in words) [2]: promotes substantial adhesion of endothelial cells even at very low plating concentrations
competition of radiolabeled Hep-III binding to endothelial cells by unlabeled peptide (endothelial cells [3]): could efficiently compete
inhibition of heparin binding to type IV collagen (type IV collagen): strong inhibitor of heparin binding to type IV collagen
competition of radiolabeled Hep-III binding to melanoma cells by unlabeled peptide (melanoma cells [4]): can be competed only by an excess of unlabeled peptide Hep-III
binding of 125I-labeled peptide to endothelial cell surface (endothelial cells [5]): saturable
maximal melanoma cell adhesion (K-1735-M4 melanoma cells; peptide coated at increasing concentrations): 70,000 dpm
melanoma cell adhesion (K-1735-M4 melanoma cells; peptide concentration 0.5 μg/well): 80 % of input
binding of 125I-labeled peptide to melanoma cell surface (melanoma cells [6]): with a tendency for saturation at the higher concentrations used

heparin
competition for the binding of tritiated heparin to peptide Hep-III (peptide Hep-III): able to compete for the binding of tritiated heparin to peptide Hep-III at very low concentrations
